In patent US20250302846A1, “ANTIBIOTIC COMPOSITION AND METHODS OF USE THEREOF” (THE REGENTS OF THE UNIVERSITY OF COLORADO A BODY CORPORATE, priority 2022, published 2025):
In brackets after ≈: the same amount, converted by molar mass.

How the values were obtained:
Assay type in all cases: cell-based
S. aureus FDA209 [1] = test: Laurdan generalized polarization membrane fluidity assay; details: mid-log S. aureus FDA209
Description: Mid-log phase S. aureus FDA209 cells were used for all experiments. A) Membrane fluidity was evaluated with a Laurdan generalized polarization (GP) assay. Cells were exposed at time 0 to DMSO, benzyl alcohol (BnOH, a membrane fluidizer [50 mM]), or D66 (1x MIC95=130 μM). Mean and SEM of three biological replicates performed with technical triplicates. B) Membrane permeability was monitored by PI fluorescence. Cells were exposed at time 0 to DMSO, SDS [0.3%], or D66. Samples were processed at the timepoints shown. Mean and SEM of three biological replicates performed with technical triplicates. C) Intracellular pH was monitored with the fluorescent probe BCECF-AM. Cells were exposed at time 0 to DMSO, the protonophore CCCP [100 μM], or D66. Mean and SEM of three biological replicates performed with technical triplicates. D) Intracellular ATP levels measured using the Promega BacTiter-Glo kit after 30 minutes of treatment with DMSO, chloramphenicol (Chlor), or D66. Mean and SEM of three biological replicates performed with technical triplicates. E) Respiration rates of cells incubated with resazurin and treated at time 0 as indicated. Mean and […]

[2] = system: S. Typhimurium (SL1344 with sifB::gfp) in RAW 264.7 macrophages; test: SAFIRE assay: bacterial accumulation (GFP) in macrophages; details: Salmonella enterica, RAW264.7, 16 h, read-out: IC50 in SAFIRE
Description: FIG. 1A-D. D66 is a small molecule that prevents S. Typhimurium replication and/or survival in macrophages. A). Structure of D66. B) RAW264.7 macrophage-like cells were infected with S. Typhimurium harboring a chromosomal sifB: : gfp reporter, treated with DMSO or D66 at two hours after infection, and monitored for bacterial accumulation (GFP+Macrophage Area) over 16 hours using the SAFIRE (Screen for Anti-infectives using Fluorescence microscopy of Intracellular Enterobacteriaceae) assay. The IC50 value is indicated. Mean and SD of biological duplicates with technical duplicates across 9 dilutions of D66. C, D) CFU assays were performed with RAW264.7 or HeLa cells infected with S. Typhimurium SL1344 or 14028 for two hours and treated for 16 hours with DMSO or 1.5-fold dilutions of D66, prior to lysis and plating for CFU. Symbols on the Y-axes are the CFU value from DMSO-treated samples. […]
SAFIRE and CFU assays: SAFIRE assays were performed with RAW 264.7 (TIB-71) macrophages seeded at […] in 100 μL of complete DMEM in 96-well tissue culture plates (Greiner, 655180) and incubated at 37° C. with 5% CO2. […] After 16 hours of treatment, samples were imaged on a spinning disk confocal microscope, and a MATLAB algorithm calculated bacterial accumulation (GFP fluorescence) within macrophages, as defined by DAPI (DNA) and MitoTracker Red, a vital dye for mitochondrial voltage. […]

S. aureus FDA209 [3] = test: Growth curves and kill curves of mid-log phase S. aureus
Description: FIG. 9A-B. D66 is bactericidal to mid-log phase S. aureus. A) Growth curves and B) kill-curves. Mid-log phase cultures of S. aureus FDA209 were treated at time 0 with either DMSO or the indicated concentration of D66 (1x MIC95=130 μM). Cultures were monitored for OD600 and plated for enumeration of colony forming units (CFU). Data are presented as fold change. Mean and SEM of three biological replicates performed with technical triplicates.

[4] = system: one-day-old staphylococcal biofilms; test: One-day-old staphylococcal biofilms; details: biofilms established 24 hours in TSB, treated 18 hours
Description: For the indicated strain, biofilms established in TSB for 24 hours were treated for 18 hours with DMSO, rifampin (1x MIC95=0.05 μg/mL), vancomycin (1x MIC95=1 μg/mL), or D66. The remaining biofilm (A-D) matrix was quantified with crystal violet or E-F) volume was quantified after Syto9 and PI staining as in FIG. 5. G, H) Syto9 and PI-stained Z-stacked images were converted to volumes. Volume data were compiled and reconstructed in Nikon Elements Advanced Research software using a color-coded volume display where blue is the bottom, lowest Z-stack and magenta is the highest point for each sample. Scale bar is in um.
Asterisks indicate P≤0.05 as determined by one-way ANOVA compared to DMSO. A-D are means and SEMs from three biological replicates performed in triplicate. E-F are means and SDs of one of two replicates derived from a minimum of four fields of view. G-H are representative images from this same replicate as in E-F.

S. aureus FDA209 [5] = test: Growth inhibition in broth (MIC95); details: Staphylococcus aureus
Description: FIG. 8A-B. […] inhibits the growth of Gram-positive bacteria in broth. A) Dose response curves monitoring staphylococcal and B. subtills growth in the presence of […] from an OD600 of 0.01, normalized to growth in 2% DMSO after 18 hours. Mean and SEM of at least three biological replicates performed with technical triplicates. B) Table of […] concentrations that inhibit growth. For comparison, S. Typhimurium is included.

In the case of `O=C(Nc1cc(Cl)cc(Cl)c1)N1CCCN(Cc2ccccc2)CC1` [D66], the membrane fluidity (S. aureus FDA209 [1]) is reported as “rapidly increases membrane fluidity”, the IC50 [2] is reported as 6 ± 0.5 µM and the “killing of mid-log phase S. aureus” value (S. aureus FDA209 [3]) is reported as “bactericidal”. The “number of live cells in one-day-old biofilms” value [4] was “decreases the number of live cells” and the MIC (S. aureus FDA209 [5]) was 130 µM (≈ 49.2 µg/mL).
